Values of other authors, collected in patent publication US20010049447A1, “Mibefradil analogues and their use” (priority 2000, published 2001).

Test system: fructose fed rats

In the case of COCC(=O)O[C@]1(CCN(C)CCCc2nc3ccccc3[nH]2)CCc2cc(F)ccc2[C@@H]1C(C)C.Cl.Cl [mibefradil, Methoxyacetic acid 2(S)-[2-[N-[3-(2-benzimidazolyl)propyl]-N-methylamino]ethyl]-6-fluoro-1(S)-isopropyl-1,2,3,4-tetrahydro-2-naphthyl ester dihydrochloride], the blood pressure is listed as “decrease” and the hyperinsulinemia is listed as “decrease”.
